Measured values published in the NIST ThermoML archive (doi:10.1021/je050473r).
± gives the expanded uncertainty stated by the source.

Settings: Liquid
[1] = 303.15 K, Closed cell (Static) method
[2] = 353.15 K, Closed cell (Static) method
[3] = 373.1 K, Closed cell (Static) method
[4] = 413.15 K, Closed cell (Static) method

Structure (SMILES) | vapor or sublimation pressure [3] | vapor or sublimation pressure [4] | other results
ClCCCl [1,2-dichloroethane] |  |  | vapor or sublimation pressure [1]: 13.28 ± 1 kPa; vapor or sublimation pressure [2]: 90.9 ± 1 kPa
CC(C)CC(C)(C)C [2,2,4-trimethylpentane] | 103.49 ± 1.1 kPa | 282.8 ± 1.4 kPa | 
CCc1cccs1 [2-ethylthiophene] | 33.26 ± 1 kPa | 111.4 ± 1.1 kPa | 
Cc1cccs1 [2-methylthiophene] | 69.87 ± 1.1 kPa | 209.8 ± 1.2 kPa | 
Cl/C=C/Cl [(E)-1,2-dichloroethene] |  |  | vapor or sublimation pressure [1]: 53.33 ± 1.1 kPa; vapor or sublimation pressure [2]: 269.9 ± 1.3 kPa
N#CC1CC1 [cyclopropanecarbonitrile] |  |  | vapor or sublimation pressure (373.1 K): 35.2 ± 1 kPa; vapor or sublimation pressure (408.15 K): 102.2 ± 1.2 kPa
C=CCCCCCC [oct-1-ene] | 53.82 ± 1.1 kPa | 165.9 ± 1.2 kPa | 
O [water] |  |  | vapor or sublimation pressure (373.1 K): 101.4 ± 1.3 kPa; vapor or sublimation pressure (408.15 K): 312.4 ± 2.1 kPa
